From PMC5218480 (PLoS ONE, 2017)

Tested on: MV-4-11 cells
Test: Gene expression microarray analysis (Affymetrix PrimeView) and GSEA
Assay type: cell-based, human
Parameters: RFU PODN (11730768_x_at) / Fold change /veh PODN (11730768_x_at) / RFU LINC00158 (11744669_a_at) / Fold change /veh LINC00158 (11744669_a_at) / RFU DUSP10 (11751237_a_at) / Fold change /veh DUSP10 (11751237_a_at) / RFU ID3 (11757404_x_at) / Fold change /veh ID3 (11757404_x_at) / RFU PLEKHG5 (11737974_s_at) / Fold change /veh PLEKHG5 (11737974_s_at) / RFU LRRC4B (11730491_at) / Fold change /veh LRRC4B (11730491_at) / RFU GIMAP4 (11747438_a_at) / Fold change /veh GIMAP4 (11747438_a_at) / RFU KRT8 (11758183_x_at) / Fold change /veh KRT8 (11758183_x_at) / RFU CNN1 (11734310_a_at) / Fold change /veh CNN1 (11734310_a_at) / RFU VPS37D (11726825_at) / Fold change /veh VPS37D (11726825_at) / RFU C10orf10 (11716522_x_at) / Fold change /veh C10orf10 (11716522_x_at) / RFU KIR2DL2 /// KIR2DL4 /// KIR2DL5A /// KIR2DL5B /// KIR2DS1 /// KIR2DS2 /// KIR2DS3 /// KIR2DS4 /// KIR3DL3 /// KIR3DL3 /// KIR3DS1 (11738374_at) / Fold change /veh KIR2DL2 /// KIR2DL4 /// KIR2DL5A /// KIR2DL5B /// KIR2DS1 /// KIR2DS2 /// KIR2DS3 /// KIR2DS4 /// KIR3DL3 /// KIR3DL3 /// KIR3DS1 (11738374_at) / RFU C1QL1 (11718748_at) / Fold change /veh C1QL1 (11718748_at) / RFU TMPRSS4 (11747572_a_at) / Fold change /veh TMPRSS4 (11747572_a_at) / RFU HAMP (11756126_x_at) / Fold change /veh HAMP (11756126_x_at) / RFU RNFT2 (11725882_a_at) / Fold change /veh RNFT2 (11725882_a_at) / RFU NR4A2 (11747474_a_at) / Fold change /veh NR4A2 (11747474_a_at) / RFU ABCC12 (11746883_a_at) / Fold change /veh ABCC12 (11746883_a_at) / RFU TMEM136 (11760407_x_at) / Fold change /veh TMEM136 (11760407_x_at) / RFU CLDN22 /// WWC2 (11732394_at) / Fold change /veh CLDN22 /// WWC2 (11732394_at) / RFU HLA-DPB1 (11760878_x_at) / Fold change /veh HLA-DPB1 (11760878_x_at) / RFU SPINT1 (11716480_a_at) / Fold change /veh SPINT1 (11716480_a_at) / RFU GAP43 (11754022_s_at) / Fold change /veh GAP43 (11754022_s_at) / RFU A4GNT (11735810_at) / Fold change /veh A4GNT (11735810_at) / RFU PRB3 (11715151_x_at) / Fold change /veh PRB3 (11715151_x_at) / RFU TUBB4B (11761932_at) / Fold change /veh TUBB4B (11761932_at) / RFU CAPN14 (11732068_a_at) / Fold change /veh CAPN14 (11732068_a_at) / RFU TMCC2 (11721928_a_at) / Fold change /veh TMCC2 (11721928_a_at) / RFU IRGQ (11745062_a_at) / Fold change /veh IRGQ (11745062_a_at) / RFU FAM174B (11720279_a_at) / Fold change /veh FAM174B (11720279_a_at) / RFU TMPRSS4 (11748680_a_at) / Fold change /veh TMPRSS4 (11748680_a_at) / RFU FAM212B (11763350_a_at) / Fold change /veh FAM212B (11763350_a_at) / RFU PLEKHG5 (11743358_a_at) / Fold change /veh PLEKHG5 (11743358_a_at) / RFU ZSCAN30 (11745921_a_at) / Fold change /veh ZSCAN30 (11745921_a_at) / RFU CMKLR1 (11741424_a_at) / Fold change /veh CMKLR1 (11741424_a_at) / RFU LOC101060620 /// MAPK8IP1 (11723275_at) / Fold change /veh LOC101060620 /// MAPK8IP1 (11723275_at) / RFU SPTSSB (11747773_x_at) / Fold change /veh SPTSSB (11747773_x_at) / RFU PRSS12 (11739890_at) / Fold change /veh PRSS12 (11739890_at) / RFU BIN1 (11741810_x_at) / Fold change /veh BIN1 (11741810_x_at) / RFU WNT11 (11732464_a_at) / Fold change /veh WNT11 (11732464_a_at) / RFU C10orf10 (11716521_a_at) / Fold change /veh C10orf10 (11716521_a_at) / RFU C5orf56 (11738089_at) / Fold change /veh C5orf56 (11738089_at) / RFU CYB561 (11721691_x_at) / Fold change /veh CYB561 (11721691_x_at) / RFU ANKRD19P (11752326_a_at) / Fold change /veh ANKRD19P (11752326_a_at) / RFU OR2T12 /// OR2T33 /// OR2T8 (11738714_s_at) / Fold change /veh OR2T12 /// OR2T33 /// OR2T8 (11738714_s_at) / RFU VCAN (11748164_a_at) / Fold change /veh VCAN (11748164_a_at) / RFU JSRP1 (11732532_at) / Fold change /veh JSRP1 (11732532_at) / RFU KRTAP10-11 (11738290_x_at) / Fold change /veh KRTAP10-11 (11738290_x_at) / RFU MYO3A (11730013_a_at) / Fold change /veh MYO3A (11730013_a_at) / RFU EBF3 (11725865_a_at) / Fold change /veh EBF3 (11725865_a_at) / RFU CAMK2N1 (11719241_x_at) / Fold change /veh CAMK2N1 (11719241_x_at) / RFU C5orf56 (11738088_a_at) / Fold change /veh C5orf56 (11738088_a_at) / RFU OLFML3 (11715873_a_at) / Fold change /veh OLFML3 (11715873_a_at) / RFU LOC100653217 /// NTM (11731650_a_at) / Fold change /veh LOC100653217 /// NTM (11731650_a_at) / RFU MAPK11 (11762145_a_at) / Fold change /veh MAPK11 (11762145_a_at) / RFU FIZ1 (11724087_x_at) / Fold change /veh FIZ1 (11724087_x_at) / RFU OASL (11726364_x_at) / Fold change /veh OASL (11726364_x_at) / RFU SOX15 (11748057_x_at) / Fold change /veh SOX15 (11748057_x_at) / RFU CD79A (11719716_a_at) / Fold change /veh CD79A (11719716_a_at) / RFU HIST1H1D (11736915_at) / Fold change /veh HIST1H1D (11736915_at) / RFU CASKIN2 (11723855_a_at) / Fold change /veh CASKIN2 (11723855_a_at) / RFU LOC730098 (11760151_x_at) / Fold change /veh LOC730098 (11760151_x_at) / RFU OR4N2 (11742367_at) / Fold change /veh OR4N2 (11742367_at) / RFU PRRT2 (11749266_a_at) / Fold change /veh PRRT2 (11749266_a_at) / RFU SNX32 (11753110_a_at) / Fold change /veh SNX32 (11753110_a_at) / RFU CDHR5 (11726645_a_at) / Fold change /veh CDHR5 (11726645_a_at) / RFU RCAN1 (11760418_a_at) / Fold change /veh RCAN1 (11760418_a_at) / RFU FAM167A (11723789_a_at) / Fold change /veh FAM167A (11723789_a_at) / RFU FAM26E (11764081_at) / Fold change /veh FAM26E (11764081_at) / RFU ISYNA1 (11749810_s_at) / Fold change /veh ISYNA1 (11749810_s_at) / RFU ACY1 (11761880_at) / Fold change /veh ACY1 (11761880_at) / RFU 11764098_at / Fold change /veh 11764098_at / RFU SAMD14 (11745864_x_at) / Fold change /veh SAMD14 (11745864_x_at) / RFU NPB (11741838_a_at) / Fold change /veh NPB (11741838_a_at) / RFU TMPRSS6 (11731388_a_at) / Fold change /veh TMPRSS6 (11731388_a_at) / RFU KRTAP10-2 (11738614_at) / Fold change /veh KRTAP10-2 (11738614_at) / RFU ARHGAP8 /// PRR5-ARHGAP8 (11727945_x_at) / Fold change /veh ARHGAP8 /// PRR5-ARHGAP8 (11727945_x_at) / RFU KRTAP5-7 /// NADSYN1 (11734609_at) / Fold change /veh KRTAP5-7 /// NADSYN1 (11734609_at) / RFU RASL12 (11751679_a_at) / Fold change /veh RASL12 (11751679_a_at) / RFU CDKN2B (11736163_a_at) / Fold change /veh CDKN2B (11736163_a_at) / RFU PRF1 (11729649_at) / Fold change /veh PRF1 (11729649_at) / RFU, ZNF638 /// ZNF638-IT1 / Fold change vs veh, ZNF638 /// ZNF638-IT1 / RFU, PANK3 / Fold change vs veh, PANK3 / RFU, SH3YL1 / Fold change vs veh, SH3YL1 / RFU, ZEB2 / Fold change vs veh, ZEB2 / RFU, NRIP1 / Fold change vs veh, NRIP1 / RFU, PTTG1IP / Fold change vs veh, PTTG1IP / RFU, CAPN2 / Fold change vs veh, CAPN2 / RFU, MED14 / Fold change vs veh, MED14 / RFU, SNORA58 / Fold change vs veh, SNORA58 / RFU, C1orf63 / Fold change vs veh, C1orf63 / RFU, LRRFIP1 / Fold change vs veh, LRRFIP1 / RFU, NDUFAF7 / Fold change vs veh, NDUFAF7 / RFU, SLC12A2 / Fold change vs veh, SLC12A2 / RFU, IBTK / Fold change vs veh, IBTK / RFU, ESF1 / Fold change vs veh, ESF1 / Fold change vs veh, TMEM50B / RFU, TAOK1 / Fold change vs veh, TAOK1 / RFU, ACBD3 / Fold change vs veh, ACBD3 / RFU, TMA16 / Fold change vs veh, TMA16 / RFU, RWDD3 / Fold change vs veh, RWDD3 / RFU, BCAT1 / Fold change vs veh, BCAT1 / RFU, EDEM3 / Fold change vs veh, EDEM3 / RFU, TMEM33 / Fold change vs veh, TMEM33 / RFU, WDR75 / Fold change vs veh, WDR75 / RFU, AHCTF1 / Fold change vs veh, AHCTF1 / RFU, TFRC / Fold change vs veh, TFRC / RFU, ZDHHC17 / Fold change vs veh, ZDHHC17 / RFU, NOM1 / Fold change vs veh, NOM1 / RFU, ARL8B / Fold change vs veh, ARL8B / RFU, ZBTB11 / Fold change vs veh, ZBTB11 / RFU, TAMM41 / Fold change vs veh, TAMM41 / RFU, KIAA1704 /// LOC100996395 / Fold change vs veh, KIAA1704 /// LOC100996395 / RFU, ING1 / Fold change vs veh, ING1 / RFU, TRMT61B / Fold change vs veh, TRMT61B / RFU, FUBP3 / Fold change vs veh, FUBP3 / RFU, TP53 / Fold change vs veh, TP53 / RFU, TNKS2 / Fold change vs veh, TNKS2 / RFU, ZFP14 / Fold change vs veh, ZFP14 / RFU, ACTR2 / Fold change vs veh, ACTR2 / RFU, PPP3R1 / Fold change vs veh, PPP3R1 / RFU, PIK3R1 / Fold change vs veh, PIK3R1 / RFU, HNRNPA1 / Fold change vs veh, HNRNPA1 / RFU, RNF170 / Fold change vs veh, RNF170 / RFU, ZNF28 / Fold change vs veh, ZNF28 / RFU, RNGTT / Fold change vs veh, RNGTT / RFU, OGT / Fold change vs veh, OGT / RFU, BRD1 / Fold change vs veh, BRD1 / RFU, MARS / Fold change vs veh, MARS / RFU, ZNF655 / Fold change vs veh, ZNF655 / RFU, FAHD1 / Fold change vs veh, FAHD1 / RFU, BDP1 / Fold change vs veh, BDP1 / RFU, LRRCC1 / Fold change vs veh, LRRCC1 / RFU, ARID1A / Fold change vs veh, ARID1A / RFU, ZNF146 / Fold change vs veh, ZNF146 / RFU, ZNF330 / Fold change vs veh, ZNF330 / RFU, GPN3 / Fold change vs veh, GPN3 / RFU, C9orf123 / Fold change vs veh, C9orf123 / RFU, N4BP2L2 / Fold change vs veh, N4BP2L2 / RFU, ARFIP1 / Fold change vs veh, ARFIP1 / RFU, FAM179B / Fold change vs veh, FAM179B / RFU, BCL10 / Fold change vs veh, BCL10 / RFU, UHRF1BP1L / Fold change vs veh, UHRF1BP1L / RFU, BET1 / Fold change vs veh, BET1 / RFU, CNOT2 / Fold change vs veh, CNOT2 / RFU, ZNF268 / Fold change vs veh, ZNF268 / Fold change vs veh, ZNF507 / RFU, DGCR2 / Fold change vs veh, DGCR2 / RFU, WDSUB1 / Fold change vs veh, WDSUB1 / Fold change vs veh, HSP90B1 /// MIR3652 / RFU, ADSS / Fold change vs veh, ADSS / RFU, GK / Fold change vs veh, GK / RFU, ZNF148 / Fold change vs veh, ZNF148 / RFU, TAF9 / Fold change vs veh, TAF9 / RFU, SLC1A5 / Fold change vs veh, SLC1A5 / RFU, SLMO2 / Fold change vs veh, SLMO2 / RFU, ABCC4 / Fold change vs veh, ABCC4 / RFU, LOC101060439 /// RAP1B / Fold change vs veh, LOC101060439 /// RAP1B / RFU, RFX7 / Fold change vs veh, RFX7 / RFU, GTPBP10 / Fold change vs veh, GTPBP10 / RFU, CNEP1R1 / Fold change vs veh, CNEP1R1 / RFU, BIVM-ERCC5 /// ERCC5 / Fold change vs veh, BIVM-ERCC5 /// ERCC5 / RFU, ILF3 / Fold change vs veh, ILF3 / RFU 11762660_at / Fold change /veh 11762660_at / RFU VCAN (11757783_s_at) / Fold change /veh VCAN (11757783_s_at) / RFU DDX43 (11728927_at) / Fold change /veh DDX43 (11728927_at) / RFU KRT8 (11758188_x_at) / Fold change /veh KRT8 (11758188_x_at) / RFU NKD1 (11759106_at) / Fold change /veh NKD1 (11759106_at) / RFU SRD5A1 (11742802_a_at) / Fold change /veh SRD5A1 (11742802_a_at) / RFU TPSAB1 /// TPSB2 (11721975_s_at) / Fold change /veh TPSAB1 /// TPSB2 (11721975_s_at) / RFU GSTM3 (11746129_a_at) / Fold change /veh GSTM3 (11746129_a_at) / RFU IL23R (11737362_x_at) / Fold change /veh IL23R (11737362_x_at) / RFU TMEM51 (11727254_a_at) / Fold change /veh TMEM51 (11727254_a_at) / RFU PIWIL2 (11732686_x_at) / Fold change /veh PIWIL2 (11732686_x_at) / RFU ORM1 (11744905_x_at) / Fold change /veh ORM1 (11744905_x_at) / RFU CCDC152 (11743942_at) / Fold change /veh CCDC152 (11743942_at) / RFU ECM1 (11717891_a_at) / Fold change /veh ECM1 (11717891_a_at) / RFU IL23R (11748794_a_at) / Fold change /veh IL23R (11748794_a_at) / RFU TNFAIP8L3 (11732012_x_at) / Fold change /veh TNFAIP8L3 (11732012_x_at) / RFU MBOAT4 (11741988_at) / Fold change /veh MBOAT4 (11741988_at) / RFU 11764193_at / Fold change /veh 11764193_at / RFU TMEM53 (11763286_at) / Fold change /veh TMEM53 (11763286_at) / RFU MAGEB2 (11727129_at) / Fold change /veh MAGEB2 (11727129_at) / RFU TMEM200A (11744735_a_at) / Fold change /veh TMEM200A (11744735_a_at) / RFU CCDC152 (11751479_a_at) / Fold change /veh CCDC152 (11751479_a_at) / RFU FAM211A (11726209_a_at) / Fold change /veh FAM211A (11726209_a_at) / RFU RGS16 (11746705_a_at) / Fold change /veh RGS16 (11746705_a_at) / RFU VCAN (11755009_s_at) / Fold change /veh VCAN (11755009_s_at) / RFU RHOB (11743442_s_at) / Fold change /veh RHOB (11743442_s_at) / RFU RGS16 (11720943_a_at) / Fold change /veh RGS16 (11720943_a_at) / RFU RGS16 (11720944_at) / Fold change /veh RGS16 (11720944_at) / RFU, VPS4B / Fold change vs veh, VPS4B / RFU, CREB1 / Fold change vs veh, CREB1 / RFU, DNAJC13 / Fold change vs veh, DNAJC13 / RFU, GNAQ / Fold change vs veh, GNAQ / RFU, CDK5R1 / Fold change vs veh, CDK5R1 / RFU, ZRANB3 / Fold change vs veh, ZRANB3 / RFU, CUL4A / Fold change vs veh, CUL4A / RFU, CCNY / Fold change vs veh, CCNY / RFU, UFL1 / Fold change vs veh, UFL1 / RFU, COG3 / Fold change vs veh, COG3 / RFU, DIAPH2 / Fold change vs veh, DIAPH2 / RFU, SKA2 / Fold change vs veh, SKA2 / RFU, AFF3 / Fold change vs veh, AFF3 / RFU, LMF1 / Fold change vs veh, LMF1 / RFU, IPO11 / Fold change vs veh, IPO11 / RFU, DFFB / Fold change vs veh, DFFB / RFU, FOXP1 / Fold change vs veh, FOXP1 / RFU, CARD8 / Fold change vs veh, CARD8 / RFU, STRN3 / Fold change vs veh, STRN3 / RFU, ADK / Fold change vs veh, ADK / RFU, RASSF2 / Fold change vs veh, RASSF2 / RFU, WIPF1 / Fold change vs veh, WIPF1 / RFU, LARP1B / Fold change vs veh, LARP1B / RFU, RASA1 / Fold change vs veh, RASA1 / RFU, RB1 / Fold change vs veh, RB1 / RFU, PPFIA1 / Fold change vs veh, PPFIA1 / RFU, MAT2A / Fold change vs veh, MAT2A / RFU, CCT5 / Fold change vs veh, CCT5 / RFU, WDR92 / Fold change vs veh, WDR92 / RFU, CUX1 / Fold change vs veh, CUX1 / RFU, TTC7A / Fold change vs veh, TTC7A / RFU, TMEM135 / Fold change vs veh, TMEM135 / RFU, DEPTOR / Fold change vs veh, DEPTOR / RFU, CPM / Fold change vs veh, CPM / RFU, DNAJB6 / Fold change vs veh, DNAJB6 / RFU, CACNA2D3 / Fold change vs veh, CACNA2D3 / RFU, DTX4 / Fold change vs veh, DTX4 / RFU, TFCP2 / Fold change vs veh, TFCP2 / RFU, GMCL1 /// GMCL1P1 / Fold change vs veh, GMCL1 /// GMCL1P1 / RFU, AEBP2 / Fold change vs veh, AEBP2 / RFU, SNHG1 /// SNORD22 /// SNORD25 /// SNORD26 /// SNORD27 /// SNORD28 /// SNORD29 /// SNORD31 / Fold change vs veh, SNHG1 /// SNORD22 /// SNORD25 /// SNORD26 /// SNORD27 /// SNORD28 /// SNORD29 /// SNORD31 / Fold change (Aza/veh), C12orf56 (ProbeSet 11735607_a_at) / Fold change (ACY-1035/veh), C12orf56 (ProbeSet 11735607_a_at) / Fold change (Aza/veh), FGFR1OP (ProbeSet 11751329_s_at) / Fold change (ACY-1035/veh), FGFR1OP (ProbeSet 11751329_s_at) / Fold change (Aza/veh), VPS36 (ProbeSet 11739960_a_at) / Fold change (ACY-1035/veh), VPS36 (ProbeSet 11739960_a_at) / RFU SYPL1 (11715823_x_at) / Fold change /veh SYPL1 (11715823_x_at) / RFU IGFBP7 (11715501_s_at) / Fold change /veh IGFBP7 (11715501_s_at) / RFU REEP3 (11722064_at) / Fold change /veh REEP3 (11722064_at) / RFU IGLL1 (11728026_x_at) / Fold change /veh IGLL1 (11728026_x_at): dose or concentration left out as unconfirmed
Details: MV-4-11 cells, 48 hours

`Nc1ccc(-c2cccs2)cc1NC(=O)c1ccc2c(c1)cc(C1CC1)n2CCN1CCOCC1` [ACY-1035] was tested, and the “Fold change /veh PIWIL2 (11732686_x_at)” value was 0.84.
